In patent US20100062067A1, “COMPOSITIONS COMPRISING MACROMOLECULAR ASSEMBLIES OF LIPID AND SURFACTANT” (MALVERN COSMECEUTICS LIMITED, priority 2006, published 2010):
Like-named read-outs stand apart in the source and are kept apart here. Marks after values point to notes of the source that are not given here.

Columns and labels:
[1] = Visual clarity of surfactant/lipid mixtures in water (Comparative Example 1); format: physicochemical
Method: The appropriate quantity of lipid and surfactant was added to water, which was then warmed to approximately 50° C. and stirred until a uniform emulsion was formed. The mixture was then homogenised for 10 minutes. Percentage values specified in this experiment refer to the weight of the component in question as a proportion of the total weight of the composition. Once the mixtures were prepared they were visually examined to determine whether the surfactant component had solubilized the lipid component in the aqueous medium. The clarity of a mixture was categorized as being clear if there was no significant visible opacity to the naked eye, whereas a mixture was categorized as cloudy if there was significant visible disruption to the passage of light.

[2] = Clarity and turbidity of surfactant/active agent mixtures in water (Comparative Example 2); format: physicochemical; conditions: surfactant 5% w/w + TECA 0.5% w/w in water, visual
Method: The appropriate quantity of surfactant and active agent was added to water, which was then warmed to approximately 50° C. and stirred. The mixture was then homogenised for 10 minutes. Percentage values specified in this experiment refer to the weight of the component in question as a proportion of the total weight of the composition. Once the mixtures were prepared they were visually examined to determine whether the surfactant component had solubilized the active agent in the aqueous medium. The clarity of a mixture was categorized as being clear if there was no significant visible opacity to the naked eye, whereas a mixture was categorized as cloudy if there was significant visible disruption to the passage of light. For a quantitative analysis of the clarity of aqueous solutions of surfactant and active, certain samples were examined using a turbidity meter ([…] , from Hach-Lange). The turbidity meter was calibrated prior to use, with two known standards (0 and 40 FNU).

[3] = Turbidity of surfactant/lipid compositions, formation of macromolecular complexes (Example 1); format: physicochemical; conditions: 2.5% surfactant, 1% 90H lipid, ca. 0.01% S LPC co-surfactant (as 0.05% SL 80-3) in water, room temperature
Method: Briefly, to the appropriate volume of warm water (ca. 60° C.), SL 80-3 was added. […] 90H was then added gradually, with heating and stirring maintained throughout and for a further 45 minutes after completion.
After mixing the solution was stirred and heated to around 60-70° C.
The required quantity of warm lipid emulsion was slowly added to the warm surfactant solution while stirring with the temperature maintained.

[4] = rough average of manufacturer and literature values; cited from earlier work
[5] = Solubilisation of piroctone olamine in compositions of the invention (Example 7); format: physicochemical; conditions: dried material (15 g Brij 35P, 6 g 90H, 0.3 g SL 80-3, 4.8 g active) re-solubilized into 50 g of water
Method: Macromolecular assemblies of the present invention which incorporated piroctone olamine were prepared in isopropanol using a method analogous to that described in Example 6 (in that case using ethanol solvent), before being dried by rotary evaporation. The dried material having the composition: • Surfactant—15 g Brij 35P • Lipid—6 g 90H • Co-surfactant (indirectly)—0.3 g SL 80-3 • Active agent—4.8 g piroctone olamine • i.e. total piroctone olamine by weight=18.4%
The dried material was then re-solubilized into 50 g of water to provide a concentrated solution (i.e. using the present invention enables aqueous formulations containing at least 9.6% piroctone olamine by weight to be prepared).

[6] = cited from earlier work
[7] = Reconstitution of dried (freeze-dried or rotary evaporated) formulations in water; format: physicochemical; conditions: rotary evaporated Brij 35P/90H/SL 80-3/progesterone composition
Description: Of those samples which were dried, all were easily reconstituted into water at the same concentration as prior to drying.
Reconstitution of the freeze-dried composition containing Brij 35P (2.5%), 90H (1%), SL 80-3 (0.05%) and TECA (0.8%), indicated in the table above by #, was successful at a concentration of 32.4% by dry weight (i.e. an overall concentration of 6% active in the final aqueous solution).
The rotary evaporated composition containing Brij 35P (2.5%), 90H (1%), SL 80-3 (0.05%) and progesterone (0.1%), indicated in the table above by t, was reconstituted in water to provide a clear and colourless solution with a progesterone concentration of 0.25% (i.e. 2500 ug/ml, 2.7% progesterone by dry weight).

[8] = Surf. Brij 35P 2.5%, lipid 90H 1.0%, co-surf. S LPC ca. 0.01% (as SL 80-3 0.05%), active agent 0.10%
Method: A stock emulsion of co-surfactant, lipid and active agent was prepared at double the desired final concentration. Co-surfactant was dissolved in water while heating (approximately 60° C.) and stirring, with the conditions maintained for approximately 15 further minutes before the mixture was homogenised (approximately 1 minute at 13,000 RPM, POLYTRON PT 3100 Homogeniser). Lipid was then added gradually, followed by continued stirring and heating until a uniform emulsion is formed. After approximately 45 minutes the mixture was then homogenised (approximately 3 minute at 15,000 RPM). The temperature was then brought to around 50° C. before the active component was added slowly under stirring until a uniform emulsion was present. The final emulsion was then homogenised (approximately 1 minute, ULTRA-TURRAX®-Janke & Kunkel).
A stock solution of surfactant was prepared at double (i.e. 5%) the desired final concentration of 2.5%, by mixing of the surfactant with the appropriate volume of water.
Macromolecular complexes incorporating active agents were then prepared by the dropwise addition of the warm lipid containing emulsion to an equal volume of surfactant solution while stirring and heating 50° C.
Samples were then allowed to cool to room temperature before being analyzed.
For a quantitative analysis of the clarity of aqueous solutions of surfactant, lipid and active, samples were examined using a turbidity meter (Nephla, from Hach-Lange). The turbidity meter was calibrated prior to use, with two known standards (0 and 40 FNU).

[9] = cited from earlier work; remark: listed apart in the source
[10] = Appearance of aqueous gel preparations (Examples 10 and 11); format: physicochemical; conditions: Example 11: TECA and VC-P solutions mixed with Blanose 7HF gel with Nipaguard DMDMH
Method: (§1) A stock solution of surfactant, co-surfactant, lipid and active agent was initially prepared in water at double the desired final concentration. Briefly, co-surfactant, lipid and active agent were dissolved in ethanol, while heating (approximately 30° C.) and stirring. Surfactant material was then added whilst maintaining heat and stir conditions. Ethanol was subsequently removed via rotary evaporation and the resulting dry material was then resolubilized in water with warming (ca. 50° C.) at double the desired final concentration.
Nipaguard PDU was dissolved into water while heating (approximately 30° C.) and stirring. Blanose® 7HF was then added until a uniform gel was formed.
Solution A and Solution B were then mixed in equal volumes to produce the final preparation.
as §1, with “prepared.” for “prepared in water at double the desired final concentration.”, “four times” for “double”
A stock solution of surfactant, co-surfactant, lipid and active agent was initially prepared. […]

Compound: CCCCCCCCCCCCOS(=O)(=O)[O-].[Na+] [SDS, Sodium dodecyl sulphate]
- Clarity ([1]; surfactant 2.5% w/w + lipid 90H 1.0% w/w in water): Cloudy
- Clarity ([1]; surfactant 5.0% w/w + lipid 90H 1.0% w/w in water): Clear
- Clarity [2]: Cloudy
- Average Turbidity [3]: 26.2 FNU
- Average HLB [4]: 40

Compound: Cc1cc(CC(C)CC(C)(C)C)n(O)c(=O)c1.NCCO (stereo not shown) [piroctone olamine]
- Active agent content of concentrated aqueous formulation [5]: at least 9.6 % by weight
- Aqueous solubility with surfactant ([6]; 15% SDS, pH 7, room temperature): approximately 2.8%
- Solubility ([6]; in 1,2-Propyleneglycol): 16.0%
- Solubility ([6]; in Ethanol): 10.0%
- Solubility ([6]; in Glycerol): 1.7%
- Solubility ([6]; in Isopropanol): 5.0%
- Solubility ([6]; in PEG-400): 1.9%
- Solubility ([6]; in Water): 0.05%

Compound: CC(=O)[C@H]1CC[C@H]2[C@@H]3CCC4=CC(=O)CC[C@]4(C)[C@H]3CC[C@]12C [progesterone]
- Active agent by dry weight [7]: 2.7%
- Turbidity (FNU) [8]: 34.20† FNU
- Active loading by dry weight ([9]; WO00/50007, 1.76 mg/ml using 198 mg of carrier): approximately 1.0%
- Maximum concentration in aqueous dispersion ([9]; WO00/50007, using 198 mg of carrier): 1.76 mg/mL
- Maximum concentration in aqueous dispersion ([9]; delivery system of WO00/50007 (Example 47), higher carrier concentration): 1.76 mg/mL

Compound: vitamin C dipalmitate [VC-P]
- Appearance of cosmetic gel preparation [10]: clear and colourless aqueous gel
